Assays:
[1] = target: T1, polypeptide SEQ ID NO: 8 in which X1, X2, X3 and X4 each represents a lysine (Mus musculus, UniProt O09114); test: HPLC test of % fixing of test compound on polypeptide; format: binding; conditions: 5 mM test compound; for fixing, SEQ ID NO: 8 (X1-X4 lysine), pH 8.3 / fixing, SEQ ID NO: 8 (X1-X4 lysine), pH 8.8 / fixing, SEQ ID NO: 8 (X1-X4 lysine), pH 9.2: Example 3; for fixing, SEQ ID NO: 8 (X1-X4 lysine), pH 8.3: twice 0.5 mM polypeptide (SEQ ID NO: 19 and 8), TRIS-HCl pH 8.3; for fixing, SEQ ID NO: 8 (X1-X4 lysine), pH 8.3 / fixing, SEQ ID NO: 8 (X1-X4 lysine), pH 9.2: 'Fixing' = fixing exists but not quantifiable; for fixing, SEQ ID NO: 8 (X1-X4 lysine), pH 8.8: TRIS-HCl pH 8.8; for fixing, SEQ ID NO: 8 (X1-X4 lysine), pH 9.2: TRIS-HCl pH 9.2; for % fixing (mean), SEQ ID NO: 8 (X1-X4 lysine): Example 4
T1 construct: made in house; host or cells: chemical peptide synthesis (Fmoc)
T1 sequence (O09114 148-173 limits assumed): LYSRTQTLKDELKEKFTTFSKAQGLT
Method: (§1) A test with 0.5 mM of polypeptide and 5 mM of test compound is carried out under the following conditions:
(§2) The reaction mixture containing 40 μl of peptide solution (1.25 mM stock solution in a 100 mM ammonium acetate buffer at pH 10.2 and the polypeptide of sequence SEQ ID NO: 18, SEQ ID NO: 7 in which X1, X2, X3 and X4 each represents a lysine, or SEQ ID NO: 8 in which X1, X2, X3 and X4 each represents a lysine), 35 μl of 100 mM ammonium acetate buffer solution, at pH 10.2, 20 μl of acetonitrile and 5 μl of solution to be tested (100 mM stock solution in acetonitrile or a 50% acetonitrile 50% DMSO mixture) was prepared and then stirred.
(§3) The reaction mixture was then put to incubate at 30° C. for 4 hours and in darkness.
(§4) HPLC analysis was then carried out at a gradient of 10% to 45% of buffer B (acetonitrile+0.08% of trifluoroacetic acid (TFA)) in 20 minutes (buffer A: water+0.1% of TFA), rate 1 ml/minute. Detection was carried out under UV at 230 nm.
(§5) The control without allergen consisted of 40 μl of buffer solution.
(§6) The buffer used was 100 Mm TRIS-HCl at pH 8.3, pH 9.2 and pH 8.8.
(§7) The buffer used was TRIS-HCl at 100 mM.
(§8) A test with twice 0.5 mM of polypeptides of sequences SEQ ID NO: 19 and SEQ ID NO: 1 wherein X1, X2, X3 and X4 each represent a lysine, and having an NH2 group at its C-Terminal end, and SEQ ID NO: 8 wherein X1, X2, X3 and X4 each represent a lysine, and 5 mM of test compound, was carried out in accordance with the same protocol as that described for example 1.

[2] = system: polypeptide of sequence SEQ ID NO: 19 (Ac-RFAACAA-NH2); test: HPLC test of % fixing of test compound on polypeptide (positive control peptide); format: binding; conditions: 5 mM test compound; for fixing, SEQ ID NO: 19, pH 8.3 / fixing, SEQ ID NO: 19, pH 8.8 / fixing, SEQ ID NO: 19, pH 9.2: Example 3; for fixing, SEQ ID NO: 19, pH 8.3: twice 0.5 mM polypeptide (SEQ ID NO: 19 and 8), TRIS-HCl pH 8.3; for fixing, SEQ ID NO: 19, pH 8.3 / fixing, SEQ ID NO: 19, pH 8.8: 'Fixing' = fixing exists but not quantifiable; for fixing, SEQ ID NO: 19, pH 8.8: TRIS-HCl pH 8.8; for % fixing (mean), SEQ ID NO: 19: Example 4; for fixing, SEQ ID NO: 19, pH 9.2: TRIS-HCl pH 9.2
Method: as §1, §2, §3, §4, §5
A test with 0.5 mM of polypeptide of sequence […] and 5 mM of test compound was carried in accordance with the same protocol as that described for example 1.
The sequence SEQ ID NO: 19, which is not a lipocalin derivative, was used as a positive control. This sequence corresponds to the following sequence:
The buffer used was 100 mM TRIS-HCl at pH 8.3.
as §6, §7, §8

[3] = skin sensitisation, as stated in the description; cited from earlier work
[4] = system: polypeptide of sequence SEQ ID NO: 18 (Ac-RFAAKAA-NH2); test: HPLC test of % fixing of test compound on polypeptide (positive control peptide); format: binding; conditions: 0.5 mM polypeptide, 5 mM test compound, 100 mM ammonium acetate buffer pH 10.2, 30° C., 4 hours, darkness
Method: as §1, §2
The sequence SEQ ID NO: 18, which is not a lipocalin derivative, was used as a positive control. This sequence corresponds to the following sequence:
as §3, §4, §5

[5] = target: T2, polypeptide SEQ ID NO: 7 in which X1, X2, X3 and X4 each represents a lysine (Mus musculus, UniProt P11672, DEL176-176); test: HPLC test of % fixing of test compound on polypeptide; format: binding; conditions: 0.5 mM polypeptide, 5 mM test compound, 100 mM ammonium acetate buffer pH 10.2, 30° C., 4 hours, darkness
T2 construct: made in house; host or cells: chemical peptide synthesis (Fmoc)
T2 sequence (P11672 with tags, fused parts or gaps DEL176-176 limits assumed): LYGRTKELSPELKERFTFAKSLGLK
Method: as §1, §2, §3, §4, §5

[6] = system: polypeptide SEQ ID NO: 1 wherein X1, X2, X3 and X4 each represent a lysine, having an NH2 group at its C-Terminal end; test: as above; format: binding; conditions: for % fixing, SEQ ID NO: 1 (X1-X4 lysine, NH2 group at C-Terminal end): Example 5, 5 mM test compound, TRIS-HCl 100 mM, signal disturbed, preventing measurements greater than 82-83% fixing, these values represent a minimum; for precipitation of test compound during measurements with SEQ ID NO: 1: Example 5 conditions, explains the medium fixing results
Method: as §1, §2, §3, §4, §5, §8, §7
It should be noted, in the case of the tests of SEQ ID NO: 1, the signal was disturbed, preventing measurements greater than 82-83% fixing. These values consequently represent a minimum.
A coelution of the polypeptide with the allergens cinnamic aldehyde and 1,2-Benzisothiazolin-3-one was observed.

[7] = twice 0.5 mM polypeptide, TRIS-HCl 100 mM
[8] = Example 5, twice 0.5 mM polypeptide, TRIS-HCl 100 mM
[9] = 0.5 mM polypeptide, 100 mM ammonium acetate buffer pH 10.2, 30° C., 4 hours, darkness
[10] = twice 0.5 mM polypeptide, TRIS-HCl 100 mM, 'Fixing' = not quantifiable
[11] = Example 5, twice 0.5 mM polypeptide, TRIS-HCl 100 mM, 'Fixing' = not quantifiable
[12] = Example 2, 0.5 mM polypeptide, 100 mM TRIS-HCl pH 8.3

Structure (SMILES) | fixing, SEQ ID NO: 8 (X1-X4 lysine), pH 8.3 [1] | fixing, SEQ ID NO: 8 (X1-X4 lysine), pH 8.8 ([1]; twice 0.5 mM polypeptide) | fixing, SEQ ID NO: 8 (X1-X4 lysine), pH 9.2 ([1]; twice 0.5 mM polypeptide) | fixing, SEQ ID NO: 19, pH 8.3 [2] | fixing, SEQ ID NO: 19, pH 8.8 ([2]; twice 0.5 mM polypeptide) | % fixing (mean), SEQ ID NO: 19 [2, 7] | % fixing, SEQ ID NO: 19 [2, 8] | sensitising capacity (sensitiser class) [3] | % fixing, SEQ ID NO: 18 [4] | % fixing, SEQ ID NO: 7 (X1-X4 lysine) [5] | % fixing, SEQ ID NO: 8 (X1-X4 lysine) [1, 9] | % fixing (mean), SEQ ID NO: 8 (X1-X4 lysine) [1, 10] | % fixing, SEQ ID NO: 8 (X1-X4 lysine) [1, 11] | % fixing, SEQ ID NO: 19 [2, 12] | % fixing, SEQ ID NO: 1 (X1-X4 lysine, NH2 group at C-Terminal end) [6] | fixing, SEQ ID NO: 19, pH 9.2 ([2]; twice 0.5 mM polypeptide) | precipitation of test compound during measurements with SEQ ID NO: 1 [6]
O=c1[nH]sc2ccccc12 [Ben, 1,2-benzisothiazolin-3-one] | 100% | 100% | 0% | Fixing | Fixing | 90% | 90% | moderate sensitisers | – | – | – | – | – | – | – | – | –
Clc1ccccc1 [Cbz, chlorobenzene] | – | – | – | – | – | 0% | 0% | non-sensitising | 0% | 0% | 0% | 0% | 0% | 0% | 7.5% | – | –
CC(C=O)Cc1ccc(C(C)(C)C)cc1 (stereo not shown) [Li, lilial] | 0% | – | – | 36% | – | 18% | 18% | weak sensitiser | – | – | – | 0% | 0% | – | 12% | 0% | –
CCCCCCCCCCCCOC(=O)c1cc(O)c(O)c(O)c1 [LG, lauryl gallate] | – | – | – | – | – | 100% | 100% | strong sensitisers | 62% | 100% | 63% | 62% | 62% | 100% | 41.5% | – | very greatly precipitated
O=c1c(-c2ccccc2)c1-c1ccccc1 [DPCP, diphenylcyclopropenone] | – | – | – | – | – | 100% | 100% | extremely strong sensitiser | – | – | – | – | – | 96% | 83.5% | – | –
O=CCCCC=O [GA, glutaraldehyde] | 50% | 100% | 50% | 22% | Fixing | 33% | 33% | strong sensitisers | – | – | – | 50% | 50% | – | 83% | 33% | –
O=C/C=C/c1ccccc1 [CA, cinnamic aldehyde] | – | – | – | – | – | – | – | moderate sensitisers | 17% | 100% | 30% | 30% | 30% | – | – | – | –
CN(C)CCCN [3-DMAPA, 3-3-dimethylaminopropylamine] | – | – | – | – | – | 15% | 15% | moderate sensitisers | – | – | – | 6% | 6% | 25% | 3% | – | –
CC(O)C(=O)O (stereo not shown) [LA, lactic acid] | 0% | 0% | 0% | 0% | 0% | 0% | 0% | non-sensitising | – | – | – | 0% | 0% | – | 1% | 0% | –
Oc1ccc(O)cc1 [HQ, 1,4-hydroquinone] | 100% | 100% | Fixing | 100% | – | 90% | 90% | strong sensitisers | – | – | – | 100% | 100% | – | 82.5% | – | –
O=CCc1ccccc1 [PA, phenylacetaldehyde] | Fixing | 0% | 21% | 100% | – | 81% | 81% | moderate sensitisers | – | – | – | Fixing | Fixing | – | 54% | 86% | very greatly precipitated
CC(C)=CCCC(C)=CC=O [Cal, citral] | – | – | – | – | – | 46% | 46% | moderate sensitisers | – | – | – | 70% | 70% | 70% | 64% | – | –

Reference: US8703431B2, “Polypeptides for the in vitro assessment of the sensitising potential of a test compound” (Immunosearch, priority 2009, dated 2014)
